How the values were obtained:
[1] = target: human recombinant LSD1 protein (Homo sapiens (Human), UniProt O60341); assay: In vitro enzyme inhibition activity assay - LSD1 (Lance Ultra TR-FRET); type: biochemical; settings: all compounds tested in the form of hydrochloride
Description: The purpose of this experiment was to test the in vitro inhibitory activity of the compounds against LSD1. The human recombinant LSD1 protein used in the experiment was purchased from Active Motif, and the enzyme level activity testing assay of LSD1 was performed using the Lance Ultra LSD1 Histone H3 Lysine 4 Demethylase Assay Kit (PerkinElmer). Tris-buffer (50 mMTris-HCl, 50 mMNaCl, 0.01% Tween-20, 1 mM DTT, 10 μM FAD, 10% glycerol, pH 9.0) was first prepared, and after preparation, the LSD1 fractions required for test were placed in this buffer and incubated for one hour at room temperature; the fractions included 4 μL of substrate solution ([…] Bio-H3K4me2, 1-24aa), 4 μL of enzyme solution (4 nM LSD1), and 2 μL of inhibitor in a 384-well microplate. After these operations, another 5 μL of assay mixture containing Eu-labeled H3K4me0 antibody and ULight-Streptavidin anti-biotin protein was added to the system, after which the fluorescence intensity of the components to be tested was detected by using Envision (PerkinElmer) in TR-FRET mode (excitation wavelength of 320 nm, emission wavelength of 620 nm). The test was repeated a total of three times to minimize errors. The final IC50 data were calculated by the software GraphPad Prism 5, and finally the sigmoidal dose-response (variable slope) method was used to obtain the fitted curve.
The LSD1 inhibitory activities of representative compounds of the present application as well as the positive control compound CC90011 were provided in Table 2. All compounds were tested in the form of hydrochloride.

[2] = test system: MV4-11 cell line transplanted tumor; assay: In vivo efficacy evaluation in mouse transplanted tumor model; parameters: species or system mouse (female NU/NU nude mice); settings: MV4-11 xenograft in NU/NU nude mice; 20 mg/kg by gavage every day for 21 days
Description: Experimental purpose: To test the in vivo efficacy of compounds in mouse transplanted tumor model Experimental materials: female NU/NU nude mice, MV4-11 cell line Experimental methods: female NU/NU nude mice, weighing 20±2 g, were inoculated with MV4-11 cell line in the right axillary subcutaneous with a cell inoculation amount of 5×10^6/mouse. When the tumor formed, the diameter of the transplanted tumor was measured with vernier calipers, and the tumor was grew up to 100-300 mm^3; the animals were divided into model control group and administration group according to their weights and tumor volumes, with 6 animals per group. The administration group was administered with a suspension ground with 0.5% CMC-Na, while the model control group was given an equal amount of blank solvent. After grouping, the drug was administered orally every day at a dose of 20 mg/kg for 21 days. During the experiment, the diameter of the transplanted tumor was measured and the weight of the mice was weighed twice a week, and the tumor tissues were taken from the animal after euthanasia on the 21st day. […]

SMILES | IC50 [1] [nM] | relative tumor proliferation rate T/C [2]
N#Cc1ccc(-c2nc(N3CC[C@@H](N)[C@@H](F)C3)nc3ccc(-c4c(F)cccc4C(F)(F)F)cc23)cc1F [Compound 83, 4-(2-((3S,4R)-4-amino-3-fluoropiperidin-1-yl)-6-(2-fluoro-6-(trifluoromethyl)phenyl)quinazolin-4-yl)-2-fluorobenzonitrile] | 30 to 300 | –
Cn1ncc2c(-c3ccc4nc(N5CCC(N)CC5)nc(-c5ccc(C#N)c(F)c5)c4c3)cccc21 [Compound 10, 4-(2-(4-aminopiperidin-1-yl)-6-(1-methyl-1H-indazol-4-yl)quinazolin-4-yl)-2-fluorobenzonitrile] | 30 to 300 | –
COc1ccc(-c2ccc3nc(N4CCC(N)CC4)nc(-c4ccc(C#N)cc4)c3c2)cc1F [Compound 25, 4-(2-(4-aminopiperidin-1-yl)-6-(3-fluoro-4-methoxyphenyl)quinazolin-4-yl)benzonitrile] | 30 to 300 | –
N#Cc1ccc(-c2nc(N3C4CCC3CC(N)C4)nc3ccc(-c4c(F)cccc4C(F)(F)F)cc23)cc1F (stereo not drawn) [Compound 69, 4-(2-(3-amino-8-azabicyclo[3.2.1]octan-8-yl)-6-(2-fluoro-6-(trifluoromethyl)phenyl)quinazolin-4-yl)-2-fluorobenzonitrile] | ≤ 30 | –
CC1(N)CCN(c2nc(-c3ccc(C#N)c(F)c3)c3cc(-c4c(F)cccc4C(F)(F)F)ccc3n2)CC1 [Compound 63, 4-(2-(4-Amino-4-methylpiperidin-1-yl)-6-(2-fluoro-6-(trifluoromethyl)phenyl)quinazolin-4-yl)-2-fluorobenzonitrile] | ≤ 30 | –
N#Cc1ccc(-c2nc(N3CCC(N)CC3)nc3c2CN(c2c(F)cccc2C(F)(F)F)CC3)cc1F [Compound 93, 4-(2-(4-aminopiperidin-1-yl)-6-(2-fluoro-6-(trifluoromethyl)phenyl)-5,6,7,8-tetrahydropyrido[4,3-d]pyrimidin-4-yl)-2-fluorobenzonitrile] | 30 to 300 | –
COc1ccc(-c2ccc3nc(N4CCC(N)CC4)nc(-c4ccc(C#N)nc4)c3c2)cc1F [Compound 24, 5-(2-(4-aminopiperidin-1-yl)-6-(3-fluoro-4-methoxyphenyl)quinazolin-4-yl)pyridinecarbonitrile] | 30 to 300 | –
N#Cc1ccc(-c2nc(N3CCC(N)CC3)nc3ccc(-c4cccc(F)c4F)cc23)cc1F [Compound 17, 4-(2-(4-aminopiperidin-1-yl)-6-(2,3-difluorophenyl)quinazolin-4-yl)-2-fluorobenzonitrile] | 30 to 300 | –

Further lines, with some results ahead:

IC50 [1] [nM] | SMILES | relative tumor proliferation rate T/C [2]
≤ 30 | N#Cc1ccc(-c2nc(N3CCC[C@@H](N)CC3)nc3ccc(-c4c(F)cccc4C(F)(F)F)cc23)cc1F (stereo in doubt) [Compound 89, 4-(2-(4-aminoazepan-1-yl)-6-(2-fluoro-6-(trifluoromethyl)phenyl)quinazolin-4-yl)-2-fluorobenzonitrile] | less than 50%
≤ 30 | N#Cc1ccc(-c2nc(N3CC[C@H](N)[C@H](F)C3)nc3ccc(-c4c(F)cccc4C(F)(F)F)cc23)cc1F [Compound 67, 4-(2-((3R,4S)-4-amino-3-fluoropiperidin-1-yl)-6-(2-fluoro-6-(trifluoromethyl)phenyl)quinazolin-4-yl)-2-fluorobenzonitrile] | –
≤ 30 | N#Cc1ccc(-c2nc(NC[C@H]3CCNC3)nc3ccc(-c4c(F)cccc4Cl)cc23)cc1F [Compound 55] | –
≤ 30 | Cc1cccc(C)c1-c1ccc2nc(N3CCC(N)CC3)nc(-c3ccc(C#N)c(F)c3)c2c1 [Compound 12, 4-(2-(4-Aminopiperidin-1-yl)-6-(2,6-dimethylphenyl)quinazolin-4-yl)-2-fluorobenzonitrile] | –
≤ 30 | N#Cc1ccc(-c2nc(N3CCC(N)CC3)nc3c(F)cc(-c4c(F)cccc4C(F)(F)F)cc23)cc1F [Compound 82] | –
≤ 30 | C[C@@H]1CN(c2nc(-c3ccc(C#N)c(F)c3)c3cc(-c4c(F)cccc4C(F)(F)F)ccc3n2)CC[C@H]1N [Compound 68, 4-(2-((3R,4R)-4-amino-3-methylpiperidin-1-yl)-6-(2-fluoro-6-(trifluoromethyl)phenyl)quinazolin-4-yl)-2-fluorobenzonitrile] | –
≤ 30 | Cc1cccc(C)c1-c1ccc2nc(NC[C@H]3CCNC3)nc(-c3ccc(C#N)c(F)c3)c2c1 [Compound 45, (S)-4-(6-(2,6-dimethylphenyl)-2-((pyrrolidin-3-ylmethyl)amino)quinazolin-4-yl)-2-fluorobenzonitrile] | –
≤ 30 | N#Cc1ccc(-c2nc(N3CCC(N)CC3)nc3ccc(-c4c(F)cccc4C(F)(F)F)cc23)cc1F [Compound 19, 4-(2-(4-aminopiperidin-1-yl)-6-(2-fluoro-6-(trifluoromethyl)phenyl)quinazolin-4-yl)-2-fluorobenzonitrile] | less than 50%

Reference: patent publication US20250042862A1, “AROMATIC HETEROCYCLIC COMPOUND AND APPLICATION THEREOF” (Shanghai Institute of Materia Medica, Chinese Academy of …, priority 2021, published 2025)
